Assay results taken from patent US12296018B2, “Albumin binding peptide-drug (AlBiPeD) conjugates and methods of making and using same” (priority 2018, dated 2025).
Values joined by “and” are separate entries in the source; they are usually repeats but may differ in a detail not shown here. Equal entries are not always repeated.

Experiments:
[1] = Aqueous solubility; format: physicochemical; settings: pH 7.4 PBS
Description: To remove the ELP160 tag, the KEKE-ELP160-srt-ABD-Dox conjugate was buffer exchanged into sortase reaction buffer, and was reacted with (His)6-sortase A-ELP40 in the presence of a 50 fold molar excess of triglycine (FIG. 2A). The efficiency of the sortase reaction, defined as the percent conversion of ELP-ABD-Dox substrate to ABD-Dox, was determined by size exclusion HPLC and was calculated to be ≥85% (FIG. 3A). The ABD-Dox product was then separated from (His)6-sortase A-ELP40, the cleaved KEKE-ELP160 tag, and unreacted KEKE-ELP160-srt-ABD-Dox in the sortase reaction solution by preparative size exclusion chromatography (SEC). The number of Dox molecules conjugated per ABD (Dox/ABD molar ratio) was measured before the sortase reaction by dissolving the lyophilized KEKE-ELP160-srt-ABD-Dox conjugate in PBS and calculating the moles of KEKE-ELP160-srt-ABD-Dox and Dox gravimetrically and spectrophotometrically at 488 nm, respectively. 3-4 Dox molecules were attached to each KEKE-ELP160-srt-ABD-(CGG)8. However, following removing the ELP160 tag, the resulting ABD-Dox conjugate was too hydrophobic and insoluble in pH 7.4 PBS because of the high number of conjugated Dox molecules. […] Formulation of AlDox in acidic pH, however, is undesirable as it can trigger the premature, in vitro degradation of the hydrazone bond between Dox and EMCH, converting AlDox back to free Dox.

[2] = molecular target: T1, mouse serum albumin (MSA) (Mus musculus, UniProt P07724); test: Isothermal titration calorimetry of ABD-Dox with MSA; format: binding; settings: ITC, 37° C., PBS
T1 construct: purchased Sigma-Aldrich (St. Louis, MO)
Description: The gel was stained with SimplyBlue stain according to the manufacturer's instructions and imaged using the Gel Doc imaging system (Bio-Rad, Hercules, CA). Isothermal titration calorimetry was done using a standard volume Nano ITC from TA instruments (Lindon, Utah). […] The calorimetric data were analyzed by NanoAnalyze software (TA instruments, Lindon, UT) and were fit to an independent binding site model to compute the thermodynamic parameters including dissociation constant (KD), binding stoichiometry (n), enthalpy (ΔH), and entropy (ΔS).

[3] = Dose-escalation study, maximum tolerated dose; format: in vivo, BALB/c mice
Description: With these encouraging biodistribution results in hand, tumor regression in vivo by ABD-Dox was investigated. The maximum tolerated dose (MTD) of ABD-Dox was established in healthy mice. A range of doses of ABD-Dox were injected into healthy BALB/c mice, and body weight loss and mortality of the mice were monitored over a two-week period to assess systemic toxicity. […] Using these criteria, the MTD was determined to be 20 mg Dox Equiv.kg^−1 for ABD-Dox (FIG. 7) and 10 mgkg^−1 BW MTD of free Dox (FIG. 8).

[4] = test system: C26 colon carcinoma tumors; test: In vivo tumor regression, syngeneic C26 model; parameters: species or system BALB/c mice
Description: In vivo tumor regression For in vivo tumor implantation, C26 cells at 5×10^5 cells in 30 μL Minimum Essential Medium (MEM) (Invitrogen, Carlsbad, CA) and MIA PaCa-2 cells at 2×10^6 cells in 50 μL 10:90 v/v MEM: Matrigel matrix (Corning Inc, Corning, New York) were inoculated in the right flank of normal and athymic nude BALB/c mice, respectively. Tumor cells were allowed to grow until the tumor volume, calculated as π/6×length×width^2, reached 75-100 mm^3 for C26 tumors and 100-125 mm^3 for MIA PaCa-2 tumors. Tumor bearing mice were then treated with ABD-Dox at 10 and 20 mg Dox Equiv.kg^−1 BW, AlDox at 20 mg Dox Equiv.kg^−1 BW, and free Dox at 10 mgkg^−1 BW. Tumor volumes and body weights were monitored for 100 days after treatment and mice displaying excessive tumor volume (>[…]), body weight loss (>15%), or ill health were euthanized. Tumor growth and survival data were analyzed by GraphPad Prism software. Survival curves were generated with the Kaplan-Meier method and compared with the log-rank (Mantel-Cox) test. Tumor growth data were compared with a paired one-way ANOVA followed by Tukey-Kramer (Tukey's) post-hoc test. P<0.05 was considered as statistically significant.
For in vivo tumor regression studies, a single dose of ABD-Dox was injected via tail vein at 10 mg Dox Equiv.kg^−1 BW (MTD of free Dox) and 20 mg Dox Equiv.kg^−1 BW (MTD of ABD-Dox) in separate cohorts of BALB/c mice with s.c. C26 tumors or nude mice with s.c. MIA Paca-2 tumors. Free Dox was injected at its MTD of 10 mgkg-1 BW, and AlDox was injected at 20 mg Dox Equiv.kg^−1 BW, a dose that was reported to be safe in previous studies. All animals were injected when the tumors were 75-100 mm; in size for C26 tumors and 100-125 mm^3 for MIA PaCa-2 tumors.

[5] = test system: AsPC-1 pancreatic cancer cells; test: In vitro cytotoxicity (MTS, 72 h) AsPC-1; format: cell-based, human; settings: 72 h incubation, Dox Equiv. concentration
Description: In vitro cytotoxicity C26 murine colon carcinoma cells and three different pancreatic cancer cell lines, BxPC-3, AsPC-1, and MIA PaCa-2, were used to study the in vitro cytotoxicity of ABD-DOX and Dox. Cells were cultured and grown as monolayers at 37° C. with C02 in a humidified incubator and were passaged at ˜80% confluency using 0.05% trypsin-EDTA (Invitrogen, Carlsbad, CA). C26, BxPC-3, AsPC-1, and MIA PaCa-2 cells were seeded in 96-well plates (5,000 cells/well) and incubated overnight. Three-fold serial dilutions of drug were then added to the wells in triplicate and also to control wells (media with no cells) to correct for the background Dox absorbance. After 72 h treatment, 20 μL MTS reagent was added to each well and was incubated for 3 h at 37° C., and the absorbance at 490 nm was measured using a Victor3 plate reader (Perkin Elmer, Boston, MA). Cell viability (%) was defined as the percentage of the absorbance of the drug-treated cells relative to buffer-treated cells and IC50 values were determined using logistic non-linear regression analysis with GraphPad Prism software. The IC50 was defined as the Dox Equiv. concentration of formulations resulting in 50% growth inhibition compared with a negative control, buffer-treated cells.

[6] = single dose 10 mg Dox Equiv.kg^−1 BW
[7] = single dose 20 mg Dox Equiv.kg^−1 BW

T1 sequence (P07724 25-608): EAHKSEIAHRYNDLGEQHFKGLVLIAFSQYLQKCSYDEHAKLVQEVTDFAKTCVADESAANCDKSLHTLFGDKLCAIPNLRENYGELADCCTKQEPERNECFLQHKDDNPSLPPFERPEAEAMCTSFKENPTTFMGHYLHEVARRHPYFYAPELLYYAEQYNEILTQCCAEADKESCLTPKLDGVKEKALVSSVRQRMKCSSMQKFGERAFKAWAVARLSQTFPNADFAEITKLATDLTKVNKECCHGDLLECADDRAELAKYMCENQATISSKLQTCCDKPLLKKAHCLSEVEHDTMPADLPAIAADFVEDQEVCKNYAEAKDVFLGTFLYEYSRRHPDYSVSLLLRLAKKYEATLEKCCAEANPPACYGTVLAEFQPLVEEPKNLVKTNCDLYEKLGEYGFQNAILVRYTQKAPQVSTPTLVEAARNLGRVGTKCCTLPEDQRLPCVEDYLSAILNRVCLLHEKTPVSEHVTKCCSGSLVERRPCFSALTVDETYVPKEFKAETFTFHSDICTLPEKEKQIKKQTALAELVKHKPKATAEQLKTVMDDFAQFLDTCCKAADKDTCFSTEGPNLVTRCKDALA

## ABD-Dox (GLAEAKVLANRELDKYGVSDYYKNLINNAKTVEGVKALIDEILAALPCGGCGGCGGCGG)
[1]
  aqueous solubility: up to 4 mg Dox Equiv.mL^−1
[2]
  ΔH: -4.45 kcal/mol
  ΔS: 76.6 Jmol^−1K^−1
[2]; independent binding site model
  n (binding stoichiometry): 0.94 and 0.9
[3]; i.v., healthy BALB/c mice, two weeks, no mortality or body weight loss greater than 15%
  maximum tolerated dose (MTD): 20 mg Dox Equiv.kg^−1
[3]; mouse, in vivo
  maximum tolerated dose, fold higher than free drug: 2 fold
[4]; 10 mg Dox Equiv.kg^−1 BW
  tumor disappearance: complete tumor disappearance within 2 weeks
  tumor recurrence in mice with eradicated tumors: 33%
[4]; 20 mg Dox Equiv.kg^−1 BW
  eradication of C26 tumors: incomplete eradication
  mice that did not survive over the 100-day course of study: 75%
  recurrence of the primary tumor: without recurrence of the primary tumor in any mice
  therapeutic efficacy vs AlDox in terms of overall survival: higher
  therapeutic efficacy vs AlDox with respect to tumor regression: equivalent
[4]; [6]
  survival compared with free Dox (10 mgkg^−1 BW): superior efficacy
  tumor regression compared with free Dox (10 mgkg^−1 BW): superior efficacy
[4]; [7]
  survival compared with free Dox (10 mgkg^−1 BW): superior efficacy
  tumor regression compared with free Dox (10 mgkg^−1 BW): superior efficacy
[5]
  IC50: 15.2 µM
